Measurements taken from ChEMBL document CHEMBL2073892, “Substitution of Trp1242 of TM17 alters substrate specificity of human multidrug resistance protein 3” (Am J Physiol Gastrointest Liver Physiol, 2003).

Target: Multidrug resistance associated protein (Homo sapiens) (UniProt Q96QA9)
Experiment: TP_TRANSPORTER: uptake in membrane vesicles from HEK293T cells
Assay type: functional, cell membranes
Settings: HEK293; Membrane vesicle

Multidrug resistance associated protein (Homo sapiens), sequence (Q96QA9 as listed by the source): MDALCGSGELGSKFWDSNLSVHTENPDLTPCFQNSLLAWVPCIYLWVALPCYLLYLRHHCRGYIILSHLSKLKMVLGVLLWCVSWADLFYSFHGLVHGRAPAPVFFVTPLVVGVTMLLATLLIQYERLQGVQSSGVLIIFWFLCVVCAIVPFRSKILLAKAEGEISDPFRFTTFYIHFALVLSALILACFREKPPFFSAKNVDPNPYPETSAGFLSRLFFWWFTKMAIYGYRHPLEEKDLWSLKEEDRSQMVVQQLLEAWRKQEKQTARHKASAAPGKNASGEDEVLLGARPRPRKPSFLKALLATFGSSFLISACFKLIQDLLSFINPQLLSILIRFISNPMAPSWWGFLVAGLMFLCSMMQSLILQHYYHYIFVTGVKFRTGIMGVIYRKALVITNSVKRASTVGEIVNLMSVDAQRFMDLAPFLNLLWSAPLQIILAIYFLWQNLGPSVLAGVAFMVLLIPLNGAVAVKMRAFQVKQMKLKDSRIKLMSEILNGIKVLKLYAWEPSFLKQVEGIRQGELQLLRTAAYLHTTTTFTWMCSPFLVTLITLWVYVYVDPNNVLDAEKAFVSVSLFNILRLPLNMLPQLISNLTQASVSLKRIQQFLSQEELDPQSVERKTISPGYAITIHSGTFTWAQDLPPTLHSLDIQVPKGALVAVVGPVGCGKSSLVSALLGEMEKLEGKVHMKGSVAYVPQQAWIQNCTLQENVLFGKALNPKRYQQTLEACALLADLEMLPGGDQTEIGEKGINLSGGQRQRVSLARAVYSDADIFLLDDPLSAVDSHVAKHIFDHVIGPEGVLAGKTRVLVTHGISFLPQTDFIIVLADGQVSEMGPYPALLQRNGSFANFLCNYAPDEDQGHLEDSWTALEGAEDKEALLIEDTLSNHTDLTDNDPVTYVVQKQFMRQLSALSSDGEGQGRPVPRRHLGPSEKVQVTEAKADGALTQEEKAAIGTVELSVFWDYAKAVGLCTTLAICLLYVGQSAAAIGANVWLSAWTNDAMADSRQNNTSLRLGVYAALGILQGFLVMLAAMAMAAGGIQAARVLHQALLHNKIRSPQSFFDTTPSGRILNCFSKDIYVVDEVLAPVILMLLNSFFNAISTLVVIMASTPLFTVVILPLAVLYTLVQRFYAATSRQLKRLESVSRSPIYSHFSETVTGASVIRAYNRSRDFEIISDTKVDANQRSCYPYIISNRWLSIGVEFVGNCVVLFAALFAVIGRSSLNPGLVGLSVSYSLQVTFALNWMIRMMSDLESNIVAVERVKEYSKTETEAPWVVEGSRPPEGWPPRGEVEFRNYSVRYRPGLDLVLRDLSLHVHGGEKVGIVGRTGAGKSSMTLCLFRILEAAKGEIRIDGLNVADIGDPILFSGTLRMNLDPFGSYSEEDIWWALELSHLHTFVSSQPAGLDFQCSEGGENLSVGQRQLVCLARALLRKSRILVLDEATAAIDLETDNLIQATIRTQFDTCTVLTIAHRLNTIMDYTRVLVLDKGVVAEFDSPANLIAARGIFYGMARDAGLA

Activity | SMILES
substrate [+] | CCCCC/C=C\C\C=C/C=C/C=C/[C@@H](SC[C@@H](NC(=O)CC[C@H](N)C(=O)O)C(=O)NCC(=O)O)[C@@H](O)CCCC(=O)O
substrate [+] | CN(Cc1cnc2nc(N)nc(N)c2n1)c1ccc(C(=O)N[C@@H](CCC(=O)O)C(=O)O)cc1
